Measurements from patent US6436874B1, “Synergistic herbicidal agents based on leaf herbicides containing phosphorus, imidazolinones and hormone weed killers” (priority 1998, dated 2002).
Like-named read-outs stand apart in the source and are kept apart here.

Assays:
Assay type in all cases: in vivo
Asystasia intrusa = assay: Field trial, herbicidal activity against Asystasia intrusa in rubber tree plantation; conditions: for inhibition at 50 g/ha: Asystasia intrusa, No. 3, dose 50 g of AS/ha; for Activity (%), w. after appl.: No. 16, dose 40 g of AS/ha
Procedure: (§1) In an oil palm plantation, the economically important tropical weed Hedyotis verticillata was grown on plots of the dimensions 2×5 m under natural outdoor conditions and treated with the herbicides A1.2, B1 and C1 or their mixtures in a tank mix under standard conditions using a plot sprayer, at a water application rate of 450 liters of water per hectare (over-the-top application to the weeds; plant density initially more than 95% ground coverage). At intervals of 1, 2, 3, 4, 5, 6, 7 and 8 weeks after the application, the herbicidal efficacy of the active compounds or active compound mixtures was evaluated visually on the basis of the treated plots, in comparison with untreated control plots. The damage to and development of all above-ground parts of the plants were recorded. Evaluation was carried out using a percentage scale (100% effect=all plants killed; 50% effect=50% of the plants and the green parts of the plants killed; 0% effect=no noticeable effect=like control plot). The evaluation values of in each case 4 plots were averaged.
In a rubber tree plantation, plots with the tropical weed Asystasia intrusa were grown under natural outdoor conditions (dimensions of the plots 2 x 5 m). The herbicides or their mixtures in a tank mix were applied under standard conditions (over-the-top application using a plot sprayer, water application rate 450 l/ha). In intervals of 4, 7, 13, 17 and 21 weeks after the application, the herbicidal efficacy of the active compounds or their mixtures was evaluated visually on the basis of the treated plots, in comparison with untreated control plots. The damage to and the development of all above-ground parts of the plants were recorded. Evaluation was carried out as described in Example 1.

Hedyotis verticillata = assay: Field trial, herbicidal activity against Hedyotis verticillata in oil palm plantation; conditions: for inhibition at 50 g/ha: Scleromitrion verticillatum, No. 14, dose 50 g of AS/ha, read-out: Herbicidal activity (%), w. after appl.
Procedure: as §1

Axonopus compressus = assay: Field trial, herbicidal activity against Axonopus compressus in rubber tree plantation; conditions: for inhibition at 50 g/ha: Axonopus compressus, No. 3, dose 50 g of AS/ha; for Activity (%), w. after appl.: No. 16, dose 40 g of AS/ha
Procedure: as §1
In a rubber tree plantation, plots with the tropical weed Axonopus compressus were grown under natural outdoor conditions (plot dimensions 2×5 m). The herbicides or their mixtures in a tank mix were applied under standard conditions using a plot spayer at a water application rate of 450 liters of water per hectare (over-the-top application). At intervals of 4, 7, 13, 17 and 21 weeks after the application, the herbicidal efficacy of the active compounds or active compound mixtures was evaluated visually on the basis of the treated plots, in comparison with untreated control plots. The damage to and development of all above-ground parts of the plants were recorded. Evaluation was carried out as described in Example 1.

Structure (SMILES): CC(C)C1(C)N=C(c2ncccc2C(=O)O)NC1=O (centres unmarked) [B1, Imazapyr]
- inhibition at 50 g/ha (Asystasia intrusa; 4 w. after appl.): 45%
- inhibition at 50 g/ha (Asystasia intrusa; 7 w. after appl.): 40%
- inhibition at 50 g/ha (Asystasia intrusa; 13 w. after appl.): 40%
- inhibition at 50 g/ha (Asystasia intrusa; 17 w. after appl.): 47%
- inhibition at 50 g/ha (Asystasia intrusa; 21 w. after appl.): 53%
- inhibition at 50 g/ha (Hedyotis verticillata; 1 w. after appl.): 8%
- inhibition at 50 g/ha (Hedyotis verticillata; 2 w. after appl.): 5%
- inhibition at 50 g/ha (Hedyotis verticillata; 3 w. after appl.): 5%
- inhibition at 50 g/ha (Hedyotis verticillata; 4 w. after appl.): 5%
- inhibition at 50 g/ha (Hedyotis verticillata; 5 w. after appl.): 10%
- inhibition at 50 g/ha (Hedyotis verticillata; 6 w. after appl.): 13%
- inhibition at 50 g/ha (Hedyotis verticillata; 7 w. after appl.): 15%
- inhibition at 50 g/ha (Hedyotis verticillata; 8 w. after appl.): 15%
- inhibition at 50 g/ha (Axonopus compressus; 4 w. after appl.): 35%
- inhibition at 50 g/ha (Axonopus compressus; 7 w. after appl.): 35%
- inhibition at 50 g/ha (Axonopus compressus; 13 w. after appl.): 45%
- inhibition at 50 g/ha (Axonopus compressus; 17 w. after appl.): 45%
- inhibition at 50 g/ha (Axonopus compressus; 21 w. after appl.): 50%

Structure (SMILES): O=C([O-])COc1ccc(Cl)cc1Cl.[Na+] [C1, 2,4-D-sodium salt]
- Activity (%), w. after appl. (Asystasia intrusa; 4 w. after appl.): 77%
- Activity (%), w. after appl. (Asystasia intrusa; 7 w. after appl.): 67%
- Activity (%), w. after appl. (Asystasia intrusa; 13 w. after appl.): 20%
- Activity (%), w. after appl. (Asystasia intrusa; 17 w. after appl.): 10%
- Activity (%), w. after appl. (Asystasia intrusa; 21 w. after appl.): 8%
- Herbicidal activity (%), w. after appl. (Hedyotis verticillata; No. 15, dose 40 g of AS/ha, 1 w. after appl.): 6%
- Herbicidal activity (%), w. after appl. (Hedyotis verticillata; No. 15, dose 40 g of AS/ha, 2 w. after appl.): 5%
- Herbicidal activity (%), w. after appl. (Hedyotis verticillata; No. 15, dose 40 g of AS/ha, 3 w. after appl.): 5%
- Herbicidal activity (%), w. after appl. (Hedyotis verticillata; No. 15, dose 40 g of AS/ha, 4 w. after appl.): 4%
- Herbicidal activity (%), w. after appl. (Hedyotis verticillata; No. 15, dose 40 g of AS/ha, 5 w. after appl.): 0%
- Herbicidal activity (%), w. after appl. (Hedyotis verticillata; No. 15, dose 40 g of AS/ha, 6 w. after appl.): 0%
- Herbicidal activity (%), w. after appl. (Hedyotis verticillata; No. 15, dose 40 g of AS/ha, 7 w. after appl.): 0%
- Herbicidal activity (%), w. after appl. (Hedyotis verticillata; No. 15, dose 40 g of AS/ha, 8 w. after appl.): 0%
- Herbicidal activity (%), w. after appl. (Hedyotis verticillata; No. 16, dose 20 g of AS/ha, 1 w. after appl.): 6%
- Herbicidal activity (%), w. after appl. (Hedyotis verticillata; No. 16, dose 20 g of AS/ha, 2 w. after appl.): 5%
- Herbicidal activity (%), w. after appl. (Hedyotis verticillata; No. 16, dose 20 g of AS/ha, 3 w. after appl.): 5%
- Herbicidal activity (%), w. after appl. (Hedyotis verticillata; No. 16, dose 20 g of AS/ha, 4 w. after appl.): 1%
- Herbicidal activity (%), w. after appl. (Hedyotis verticillata; No. 16, dose 20 g of AS/ha, 5 w. after appl.): 0%
- Herbicidal activity (%), w. after appl. (Hedyotis verticillata; No. 16, dose 20 g of AS/ha, 6 w. after appl.): 0%
- Herbicidal activity (%), w. after appl. (Hedyotis verticillata; No. 16, dose 20 g of AS/ha, 7 w. after appl.): 0%
- Herbicidal activity (%), w. after appl. (Hedyotis verticillata; No. 16, dose 20 g of AS/ha, 8 w. after appl.): 0%
- Activity (%), w. after appl. (Axonopus compressus; 4 w. after appl.): 5%
- Activity (%), w. after appl. (Axonopus compressus; 7 w. after appl.): 5%
- Activity (%), w. after appl. (Axonopus compressus; 13 w. after appl.): 0%
- Activity (%), w. after appl. (Axonopus compressus; 17 w. after appl.): 0%
- Activity (%), w. after appl. (Axonopus compressus; 21 w. after appl.): 0%
